From ChEMBL document CHEMBL1201862, “PubChem BioAssay data set” (2004)
Activity calls are given as the source filed them.

What was measured:
[1] = molecular target: Polyadenylate-binding protein 1 (Homo sapiens, UniProt P11940); assay: MLLE domain peptide-binding blockers, IC50 – biochemical, fluorescence polarization, FITC-PAM2 peptide, dose response (AID 602259); format: functional; details: read-out: IC50_Mean
Caspase-7 = Caspase-7 (Homo sapiens, UniProt P55210); assay: caspase-7 enzyme inhibition, selectivity check – biochemical, DEVD-R110 fluorescence, cherry-pick, selectivity assay for caspase-6 inhibitor project, dose response (AID 743295); format: functional
Genome polyprotein = Genome polyprotein (dengue virus type 2, UniProt P29990); assay: flavivirus cap methylation enzyme inhibition – biochemical, confirmation dose response, primary screen (AID 588689); format: functional
[2] = molecular target: Tyrosine-protein phosphatase non-receptor type 5 (Homo sapiens, UniProt P54829); assay: PTPN5 enzyme inhibition – biochemical, fluorescence intensity, uHTS hits, confirmation (AID 602372); format: functional; details: read-out: IC50_Mean
[3] = molecular target: T1, Rac GTPase-activating protein 1 (Homo sapiens, UniProt Q9H0H5); assay: blockers of MgcRacGAP-driven Rac1 GTP hydrolysis – biochemical, ADP Hunter fluorescence, primary and confirmatory, confirmation (AID 624330); format: functional
T1 sequence (Q9H0H5 whole entry): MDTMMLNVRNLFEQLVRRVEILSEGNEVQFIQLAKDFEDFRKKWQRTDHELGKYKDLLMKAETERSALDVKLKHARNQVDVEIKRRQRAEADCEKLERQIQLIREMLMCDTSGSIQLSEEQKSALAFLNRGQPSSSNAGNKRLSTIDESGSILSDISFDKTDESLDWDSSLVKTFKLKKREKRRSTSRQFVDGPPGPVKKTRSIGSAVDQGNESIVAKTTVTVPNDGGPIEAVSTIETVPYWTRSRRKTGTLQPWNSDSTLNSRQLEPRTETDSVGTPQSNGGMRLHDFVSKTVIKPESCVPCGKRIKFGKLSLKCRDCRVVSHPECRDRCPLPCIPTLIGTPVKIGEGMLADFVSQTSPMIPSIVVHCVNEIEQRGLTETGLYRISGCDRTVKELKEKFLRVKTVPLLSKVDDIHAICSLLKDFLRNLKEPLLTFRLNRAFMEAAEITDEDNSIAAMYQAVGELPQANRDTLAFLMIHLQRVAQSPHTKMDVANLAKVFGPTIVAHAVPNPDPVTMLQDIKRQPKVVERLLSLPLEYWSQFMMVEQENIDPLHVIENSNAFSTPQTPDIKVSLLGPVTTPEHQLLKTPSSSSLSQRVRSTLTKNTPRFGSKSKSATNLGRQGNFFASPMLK

[4] = molecular target: Small ubiquitin-related modifier 1 (Homo sapiens, UniProt P63165); assay: SUMO1 protein interaction blockers, potency – biochemical, fluorescence polarization, uHTS hits, dose response (AID 624382); format: functional; details: read-out: IC50_Mean
Protein RecA = molecular target: T2, Protein RecA (Mycobacterium tuberculosis, UniProt P9WHJ3); assay: Fluorescence Cell-Free Homogeneous Dose Retest to Identify Inhibitors of RecA-Intein Splicing Activity. [Related pubchem assays (depositor defined):AID2097, AID2223, AID489010, AID492950]; format: functional
T2 sequence (P9WHJ3 whole entry): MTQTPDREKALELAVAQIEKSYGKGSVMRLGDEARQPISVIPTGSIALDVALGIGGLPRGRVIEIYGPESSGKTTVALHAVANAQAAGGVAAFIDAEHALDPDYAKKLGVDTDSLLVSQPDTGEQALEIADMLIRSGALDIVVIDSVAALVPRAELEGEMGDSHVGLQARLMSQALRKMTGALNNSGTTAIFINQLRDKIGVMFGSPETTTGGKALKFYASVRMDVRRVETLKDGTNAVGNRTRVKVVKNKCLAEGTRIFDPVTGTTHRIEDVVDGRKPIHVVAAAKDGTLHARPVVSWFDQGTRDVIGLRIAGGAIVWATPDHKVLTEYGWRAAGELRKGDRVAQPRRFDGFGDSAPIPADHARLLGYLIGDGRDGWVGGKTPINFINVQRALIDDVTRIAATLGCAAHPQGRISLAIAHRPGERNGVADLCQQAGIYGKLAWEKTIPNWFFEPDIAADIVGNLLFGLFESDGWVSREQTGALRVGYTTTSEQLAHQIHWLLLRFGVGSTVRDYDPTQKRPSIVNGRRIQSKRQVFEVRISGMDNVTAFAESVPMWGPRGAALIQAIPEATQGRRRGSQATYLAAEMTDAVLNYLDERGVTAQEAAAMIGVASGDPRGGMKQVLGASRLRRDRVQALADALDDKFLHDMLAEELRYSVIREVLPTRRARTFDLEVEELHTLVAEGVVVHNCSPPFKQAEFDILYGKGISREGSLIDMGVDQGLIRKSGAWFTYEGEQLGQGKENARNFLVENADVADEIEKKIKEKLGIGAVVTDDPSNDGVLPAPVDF

[5] = molecular target: T3, Heat shock factor protein 1 (Mus musculus, UniProt P38532); assay: enhancement of HSF1-driven luciferase signal – cell-based, NIH3T3, luminescence, dose retest, confirmation (AID 435004); format: functional;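 also: stress induced by proteasome inhibitor MG132 added 30 min after compound; luciferase reporter driven by HSF1 response element in NIH3T3 cells; actives raise luminescence as potentiators of the MG132 stress response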
T3 sequence (P38532 whole entry): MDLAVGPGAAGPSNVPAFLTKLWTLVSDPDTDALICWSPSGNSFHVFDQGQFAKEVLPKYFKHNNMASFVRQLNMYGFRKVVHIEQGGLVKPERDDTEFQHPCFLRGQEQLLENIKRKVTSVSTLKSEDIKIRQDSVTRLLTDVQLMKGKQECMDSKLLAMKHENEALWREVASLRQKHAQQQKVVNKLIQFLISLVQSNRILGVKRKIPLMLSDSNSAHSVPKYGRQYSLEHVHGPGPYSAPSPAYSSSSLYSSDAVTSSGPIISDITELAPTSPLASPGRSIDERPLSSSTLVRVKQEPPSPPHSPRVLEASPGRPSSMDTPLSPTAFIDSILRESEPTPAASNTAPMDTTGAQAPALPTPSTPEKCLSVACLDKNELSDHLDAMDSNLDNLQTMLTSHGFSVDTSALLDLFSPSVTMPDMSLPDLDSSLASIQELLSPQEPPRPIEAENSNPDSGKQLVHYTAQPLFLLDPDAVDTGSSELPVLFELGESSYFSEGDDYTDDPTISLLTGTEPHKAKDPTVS

Fatty acid synthase = Fatty acid synthase (Homo sapiens, UniProt P49327); assay: inhibition of human FAS-TE enzyme activity – biochemical, endpoint fluorescence intensity, uHTS hits, dose response (AID 624327); format: functional;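 also: fluorescence from hydrolysis of an O-methyl fluorescein acyl ester substrate by the enzyme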
[6] = Trypanosoma cruzi growth suppression in host cells – NIH3T3 host cells, beta-gal luminescence, confirmation (AID 2044); format: functional, cell-based;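 also: intracellular parasites grown in NIH/3T3 mouse fibroblasts as host cells; luminescent beta-galactosidase reporter signal from transgenic T. cruzi replicating inside host cells; inhibitors lower the luminescence signal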
[7] = NIH3T3 cell viability loss – ATP luminescence, mouse fibroblasts, counter-screen, dose response (AID 2010); format: functional, cell-based;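 also: cells exposed to compound for about 90 hours before reading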
Beta Lactamase = Beta Lactamase (Pseudomonas aeruginosa, UniProt Q932Y6); assay: BLA reporter interference, concentration series – BLA reporter cells, FRET fluorescence, artefact control for TLR9-MyD88 binding inhibitor project, dose response (AID 588341); format: cell-based;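 also: cell based assay in CHO-K1 cells stably expressing beta-lactamase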
[8] = molecular target: Delta-type opioid receptor (Homo sapiens, UniProt P41143); assay: HTS Image-Based Screen for Agonists of the DOR Receptor. [Related pubchem assays (depositor defined):AID1777, AID1786, AID2133]; format: functional
Delta-type opioid receptor, sequence (P41143 whole entry): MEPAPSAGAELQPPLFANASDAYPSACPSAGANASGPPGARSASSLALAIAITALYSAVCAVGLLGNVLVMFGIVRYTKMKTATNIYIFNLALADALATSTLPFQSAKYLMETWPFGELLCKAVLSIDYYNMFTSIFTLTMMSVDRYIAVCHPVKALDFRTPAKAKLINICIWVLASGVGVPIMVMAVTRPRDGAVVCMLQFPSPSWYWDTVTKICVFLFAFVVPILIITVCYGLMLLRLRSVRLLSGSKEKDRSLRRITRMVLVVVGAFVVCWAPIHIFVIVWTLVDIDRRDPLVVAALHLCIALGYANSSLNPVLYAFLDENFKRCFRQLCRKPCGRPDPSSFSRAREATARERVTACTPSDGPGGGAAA

Genome polyprotein, sequence (P29990 2492-3391 limits assumed): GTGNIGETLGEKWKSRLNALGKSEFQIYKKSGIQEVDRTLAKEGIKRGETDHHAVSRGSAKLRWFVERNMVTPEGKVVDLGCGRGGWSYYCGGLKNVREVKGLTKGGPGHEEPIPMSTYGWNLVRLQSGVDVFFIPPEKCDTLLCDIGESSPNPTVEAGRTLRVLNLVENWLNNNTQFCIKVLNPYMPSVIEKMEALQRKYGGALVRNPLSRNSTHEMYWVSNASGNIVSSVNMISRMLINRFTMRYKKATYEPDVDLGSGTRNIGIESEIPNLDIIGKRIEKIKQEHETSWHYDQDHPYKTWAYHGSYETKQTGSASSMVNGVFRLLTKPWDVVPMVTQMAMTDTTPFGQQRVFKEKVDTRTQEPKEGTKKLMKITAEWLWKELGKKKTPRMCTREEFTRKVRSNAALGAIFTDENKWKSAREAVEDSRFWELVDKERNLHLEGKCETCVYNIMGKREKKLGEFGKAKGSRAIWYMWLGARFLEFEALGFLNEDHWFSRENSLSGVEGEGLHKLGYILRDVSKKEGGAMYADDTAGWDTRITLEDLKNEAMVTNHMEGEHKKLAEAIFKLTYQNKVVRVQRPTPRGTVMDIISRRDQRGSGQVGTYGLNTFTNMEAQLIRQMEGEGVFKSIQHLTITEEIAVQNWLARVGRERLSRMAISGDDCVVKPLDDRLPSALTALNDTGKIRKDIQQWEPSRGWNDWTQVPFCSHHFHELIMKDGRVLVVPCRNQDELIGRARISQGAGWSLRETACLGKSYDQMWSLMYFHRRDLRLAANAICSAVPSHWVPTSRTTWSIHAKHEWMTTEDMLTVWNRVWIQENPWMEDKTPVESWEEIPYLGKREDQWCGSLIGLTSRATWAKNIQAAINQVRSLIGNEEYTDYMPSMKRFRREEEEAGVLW
Beta Lactamase, sequence (Q932Y6 whole entry): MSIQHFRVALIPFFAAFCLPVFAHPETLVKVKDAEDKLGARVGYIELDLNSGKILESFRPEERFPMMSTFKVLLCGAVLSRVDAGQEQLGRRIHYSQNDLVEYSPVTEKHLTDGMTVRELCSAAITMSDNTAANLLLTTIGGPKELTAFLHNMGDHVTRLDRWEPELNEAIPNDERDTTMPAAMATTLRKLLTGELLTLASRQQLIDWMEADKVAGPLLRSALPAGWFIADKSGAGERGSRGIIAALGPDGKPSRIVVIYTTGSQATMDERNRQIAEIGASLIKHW
Fatty acid synthase, sequence (P49327 whole entry): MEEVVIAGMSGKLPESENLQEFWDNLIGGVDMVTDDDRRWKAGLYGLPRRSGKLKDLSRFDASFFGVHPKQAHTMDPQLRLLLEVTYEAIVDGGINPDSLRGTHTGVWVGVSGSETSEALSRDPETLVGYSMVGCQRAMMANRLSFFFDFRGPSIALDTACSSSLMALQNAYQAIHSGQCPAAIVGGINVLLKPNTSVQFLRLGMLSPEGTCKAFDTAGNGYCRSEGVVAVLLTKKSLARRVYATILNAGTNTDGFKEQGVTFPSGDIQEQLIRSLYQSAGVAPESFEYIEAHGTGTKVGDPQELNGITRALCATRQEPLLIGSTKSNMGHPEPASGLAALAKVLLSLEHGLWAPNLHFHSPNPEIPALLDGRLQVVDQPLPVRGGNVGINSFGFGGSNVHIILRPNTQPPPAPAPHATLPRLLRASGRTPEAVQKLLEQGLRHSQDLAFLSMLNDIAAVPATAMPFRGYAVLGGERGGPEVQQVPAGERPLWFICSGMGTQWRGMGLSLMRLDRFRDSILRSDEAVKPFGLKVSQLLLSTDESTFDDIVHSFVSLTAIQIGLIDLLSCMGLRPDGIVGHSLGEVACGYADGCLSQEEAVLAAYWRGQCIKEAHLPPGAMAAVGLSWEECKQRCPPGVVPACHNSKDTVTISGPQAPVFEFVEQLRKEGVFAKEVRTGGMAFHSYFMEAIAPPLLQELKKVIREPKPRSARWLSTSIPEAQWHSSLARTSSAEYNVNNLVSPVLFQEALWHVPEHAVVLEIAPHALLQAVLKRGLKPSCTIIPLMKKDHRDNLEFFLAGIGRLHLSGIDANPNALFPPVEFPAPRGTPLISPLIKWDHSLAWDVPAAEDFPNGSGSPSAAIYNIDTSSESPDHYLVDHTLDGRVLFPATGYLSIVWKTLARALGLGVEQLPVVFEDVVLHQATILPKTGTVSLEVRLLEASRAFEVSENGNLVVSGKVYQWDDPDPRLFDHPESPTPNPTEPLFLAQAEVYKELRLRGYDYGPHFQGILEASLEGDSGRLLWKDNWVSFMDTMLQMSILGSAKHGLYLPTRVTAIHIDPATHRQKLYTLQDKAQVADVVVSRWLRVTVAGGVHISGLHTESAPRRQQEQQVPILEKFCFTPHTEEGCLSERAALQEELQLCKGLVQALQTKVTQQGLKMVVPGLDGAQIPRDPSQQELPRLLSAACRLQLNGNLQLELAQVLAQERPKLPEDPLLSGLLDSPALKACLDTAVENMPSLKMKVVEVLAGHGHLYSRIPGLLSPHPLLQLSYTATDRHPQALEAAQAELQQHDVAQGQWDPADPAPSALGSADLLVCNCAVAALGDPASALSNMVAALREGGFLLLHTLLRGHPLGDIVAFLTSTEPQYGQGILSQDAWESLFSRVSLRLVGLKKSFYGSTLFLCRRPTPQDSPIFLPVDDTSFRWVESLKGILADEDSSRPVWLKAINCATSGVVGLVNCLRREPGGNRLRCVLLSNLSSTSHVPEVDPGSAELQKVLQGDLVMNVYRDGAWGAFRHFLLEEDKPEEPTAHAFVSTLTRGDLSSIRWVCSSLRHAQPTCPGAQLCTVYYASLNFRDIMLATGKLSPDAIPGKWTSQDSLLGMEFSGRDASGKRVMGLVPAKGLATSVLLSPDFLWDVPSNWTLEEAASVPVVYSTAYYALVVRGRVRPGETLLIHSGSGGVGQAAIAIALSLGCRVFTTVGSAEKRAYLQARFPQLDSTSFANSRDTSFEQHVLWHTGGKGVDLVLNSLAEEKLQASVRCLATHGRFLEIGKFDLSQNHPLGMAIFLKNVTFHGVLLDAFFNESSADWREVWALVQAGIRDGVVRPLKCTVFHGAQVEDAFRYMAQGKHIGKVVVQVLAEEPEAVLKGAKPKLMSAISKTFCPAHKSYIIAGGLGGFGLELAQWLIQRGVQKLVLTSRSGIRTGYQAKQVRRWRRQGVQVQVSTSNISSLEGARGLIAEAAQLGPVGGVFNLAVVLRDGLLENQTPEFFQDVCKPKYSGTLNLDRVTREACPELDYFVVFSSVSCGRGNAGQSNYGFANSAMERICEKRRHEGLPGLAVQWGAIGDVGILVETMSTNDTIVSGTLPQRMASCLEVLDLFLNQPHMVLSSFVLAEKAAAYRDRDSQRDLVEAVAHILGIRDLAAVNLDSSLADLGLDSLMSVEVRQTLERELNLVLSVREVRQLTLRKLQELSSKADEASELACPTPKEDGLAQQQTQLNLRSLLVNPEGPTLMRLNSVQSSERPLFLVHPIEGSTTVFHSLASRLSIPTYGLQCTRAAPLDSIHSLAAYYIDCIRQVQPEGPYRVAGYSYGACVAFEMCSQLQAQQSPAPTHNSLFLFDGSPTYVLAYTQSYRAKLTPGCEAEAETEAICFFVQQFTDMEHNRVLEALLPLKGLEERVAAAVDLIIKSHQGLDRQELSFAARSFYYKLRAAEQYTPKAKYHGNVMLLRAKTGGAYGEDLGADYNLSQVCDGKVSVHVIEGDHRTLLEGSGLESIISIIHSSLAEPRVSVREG
Tyrosine-protein phosphatase non-receptor type 5, sequence (P54829 whole entry): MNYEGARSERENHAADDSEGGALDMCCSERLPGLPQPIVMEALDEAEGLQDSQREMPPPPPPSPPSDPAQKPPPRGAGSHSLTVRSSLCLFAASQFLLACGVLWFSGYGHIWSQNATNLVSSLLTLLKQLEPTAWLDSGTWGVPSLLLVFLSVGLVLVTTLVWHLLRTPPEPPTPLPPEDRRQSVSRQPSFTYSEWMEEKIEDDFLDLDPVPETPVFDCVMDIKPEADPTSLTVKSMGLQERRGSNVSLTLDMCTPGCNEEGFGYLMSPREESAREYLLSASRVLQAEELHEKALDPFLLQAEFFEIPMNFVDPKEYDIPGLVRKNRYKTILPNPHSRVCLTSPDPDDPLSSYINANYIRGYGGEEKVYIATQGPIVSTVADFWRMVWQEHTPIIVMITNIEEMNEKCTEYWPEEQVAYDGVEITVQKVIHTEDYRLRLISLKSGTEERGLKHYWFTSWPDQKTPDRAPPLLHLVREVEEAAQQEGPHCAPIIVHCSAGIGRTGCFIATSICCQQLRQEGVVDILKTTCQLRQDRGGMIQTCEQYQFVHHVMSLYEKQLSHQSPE
Small ubiquitin-related modifier 1, sequence (P63165 whole entry): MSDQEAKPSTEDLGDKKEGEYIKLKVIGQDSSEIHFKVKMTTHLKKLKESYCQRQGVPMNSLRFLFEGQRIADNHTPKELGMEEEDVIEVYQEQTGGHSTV
Caspase-7, sequence (P55210 24-198 limits assumed): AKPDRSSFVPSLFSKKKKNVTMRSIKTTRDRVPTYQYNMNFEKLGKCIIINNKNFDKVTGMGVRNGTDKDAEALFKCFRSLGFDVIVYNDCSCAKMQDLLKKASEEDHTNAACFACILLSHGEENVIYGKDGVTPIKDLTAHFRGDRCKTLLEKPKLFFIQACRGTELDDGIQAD
Caspase-7, sequence (P55210 207-303 limits assumed): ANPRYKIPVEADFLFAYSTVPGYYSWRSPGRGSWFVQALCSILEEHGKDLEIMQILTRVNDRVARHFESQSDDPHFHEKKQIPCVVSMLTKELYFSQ

## O=S(=O)(O)c1cc(O)c2cc(Nc3ccccc3)ccc2c1
[1]
  IC50: > 66 µM (inactive)
Caspase-7
  AC50: 30.2 µM (active)
Genome polyprotein
  IC50: 19.4 µM (active)
[2]
  IC50: 6.49 µM (active)
[3]
  IC50: 37.9 µM (active)
[4]
  IC50: > 66.6 µM (inactive)

## O=[N+]([O-])c1c(Nc2ccccc2O)cc(Cl)c2nonc12
Protein RecA
  EC50: 1.21 µM (active)
[5]
  EC50: 3.49 µM (inconclusive)
Fatty acid synthase
  IC50: 14.6 µM (active)
[6]
  EC50: 1.79 µM (active)
Genome polyprotein
  IC50: 9.7 µM (active)
[7]
  EC50: 3.68 µM (active)
Beta Lactamase
  IC50: 18.4 µM (inactive)
[8]
  EC50: > 32 µM (inactive)
